Data reported in patent publication US5852018A, “Pharmaceutical piperazine compounds” (Xenova Limited, priority 1994, dated 1998).
Where “and” joins values, the source holds several entries; their conditions need not be identical. Identical values can stand only once.

Assays:
AR 1.0 cells [1] = test: Proliferation assay with and without fixed concentration of doxorubicin (sulphorhodamine B); format: cell-based, mouse; settings: four days
Excerpt: Compounds of formula A were examined for their ability to potentiate the toxicity of doxorubicin in AR 1.0 cells.

AR 1.0 cells [2] = test: Potentiation of doxorubicin toxicity (potentiation index) in AR 1.0 cells; format: cell-based, mouse; settings: four days
AR 1.0 cells [3] = test: Drug accumulation assay (tritiated daunorubicin) in MDR resistant AR 1.0 cells; format: cell-based; settings: Mus musculus, DNR 2 μM; for IC50: 37° C., 1 hr; for Emax: 1 h, 100% = accumulation with 100 μM Verapamil, read-out: MAX accumulation (% 100 μm VRP)
Procedure: The EMT6 mouse mammary carcinoma cell line and the MDR resistant subline AR 1.0 were cultured in RPMI 1640 medium containing 10% foetal calf serum and 2 mM glutamine at 37° C. in 5% CO2 . Cells were passaged between 1 in 200 and 1 in 2000 in the case of the parental cell line and between 1 in 20 and 1 in 200 in the case of the MDR resistant subline, after trypsinisation (0.25% trypsin, 0.2 gl^-1, EDTA).
AR 1.0 cells were seeded into 96 well opaque culture plates (Canberra Packard). The assay medium contained a mixture of tritiated Daunorubicin (DNR), a cytotoxic agent, and unlabelled DNR (0.25μ Ci/ml; 2 μM). Compounds of formula A were serially diluted in assay medium over a range of concentrations from 100 nM to 100 μM. The cells were incubated at 37° C. for 1 hr before washing and counting of cell associated radioactivity. Each assay included a titration of the known resistance modifying agent Verapamil as positive control. Results were expressed as % maximum accumulation where 100% accumulation is that observed in the presence of 100 μM Verapamil.

MDR cells = settings: in vitro and in vivo; Cancer Res., 41, 1967-1972 (1981); cited from earlier work
[4] = Mus musculus, 96 h, compound alone, read-out: COMPOUND TOXICITY (IC50)
[5] = cytotoxic agent 1.00 μg/ml, 5760 min, read-out: TOXICITY WITH CYTOTOXIC AGENT (IC 50)
[6] = cytotoxic agent 0.50 μg/ml, 5760 min, read-out: TOXICITY WITH CYTOTOXIC AGENT (IC 50)

SMILES	IC50 (AR 1.0 cells [1]; [4]) [µM]	Potentiation Index (AR 1.0 cells [2]; Conc Comp 5 μM)	IC50 (AR 1.0 cells [3]) [µM]	Potentiation Index (AR 1.0 cells [2]; Conc Comp 3 μM)	Emax (AR 1.0 cells [3]) [%]	IC50 (AR 1.0 cells [1]; [5]) [µM]	IC50 (AR 1.0 cells [1]; [6]) [µM]	sensitisation of MDR cells to Vinca alkaloids (MDR cells)
COc1ccc(/C=c2/c(=O)[nH]/c(=C\c3ccccc3)c(=O)n2CC2CC2)cc1 [Compound 1454, (3Z,6Z)-3-Benzylidene-1-cyclopropylmethyl-6-(4-methoxybenzylidene)-2,5-piperazinedione]	5	10	10	–	–	–	–	–
COc1ccc(/C=c2\[nH]c(=O)/c(=C/c3ccccc3)n(CC3CC3)c2=O)cc1 [Compound 1500]	20	–	15	10	91.3	–	–	–
COc1ccc(/C=c2/c(=O)[nH]/c(=C\c3ccccc3)c(=O)n2CC(=O)N2CCCC2)cc1 [Compound 1521, N,N-Tetramethylene-(3Z,6Z)-3-benzylidene-6-(4-methoxybenzylidene)-2,5-dioxo-1-piperazinylacetamide]	70	–	30	–	65.2	–	–	–
CCN(CC)C(=O)Cn1c(=O)/c(=C/c2ccc(OC)cc2)[nH]c(=O)/c1=C/c1ccccc1 [Compound 1527, N,N-Diethyl-(3Z,6Z)-6-benzylidene-3-(4-methoxybenzylidene)-2,5-dioxo-1-piperazinylacetamide]	40	–	40	–	73.9	1.5	–	–
Cn1c(=O)/c(=C/c2ccccc2)n(Cc2ccccc2)c(=O)/c1=C/c1ccccc1 [Compound 1779, (3Z,6Z)-1-Benzyl-3,6-dibenzylidene-4-methyl-2,5-piperazinedione]	15	40	15	–	–	0.8	–	–
CC(=O)OCCn1c(=O)/c(=C/c2ccccc2)n(C)c(=O)/c1=C/c1ccccc1 [Compound 1817, (3Z,6Z)-1-(2-Acetoxyethyl)-3,6-dibenzylidene-4-methyl-2,5-piperazinedione]	20	–	20	–	–	–	1.5	–
CC(=O)OCCOc1n/c(=C\c2ccccc2)c(=O)n(C)/c1=C\c1ccccc1 [Compound 1818, (3Z,6Z)-5-(2-Acetoxyethoxy)-3,6-dibenzylidene-1-methyl-3,6-dihydro-2-pyrazinone]	1.5	–	7	–	–	–	0.8	–
Cn1c(=O)/c(=C/c2ccccc2)nc(OCC2OCCO2)/c1=C/c1ccccc1 [Compound 1822, (3Z,6Z)-3,6-Dibenzylidene-1-methyl-2-oxo-1,2,3,6-tetrahydro-5-pyrazinyloxyacetaldehyde ethylene acetal]	5	–	9	–	–	–	–	–
Cn1c(=O)/c(=C/c2ccccc2)n(CC2OCCO2)c(=O)/c1=C/c1ccccc1 [Compound 1823, (3Z,6Z)-3,6-Dibenzylidene-4-methyl-2,5-dioxo-1-piperazinylacetaldehydeethylene acetal]	30	–	9	20	–	–	0.7	–
Cn1c(=O)/c(=C/c2ccccc2)nc(OCCCN2C(=O)c3ccccc3C2=O)/c1=C/c1ccccc1 [Compound 1824, (3Z,6Z)-3,6-Dibenzylidene-1-methyl-5-(3-phthalimidopropoxy)-3,6-dihydro-2-pyrazinone]	7	–	3	60 and 80	–	–	–	–
C=CCn1c(=O)/c(=C/c2ccccc2)n(C)c(=O)/c1=C/c1ccccc1 [Compound 1825, (3Z,6Z)-1-Allyl-3,6-dibenzylidene-4-methyl-2,5-piperazinedione]	20	–	10	15	–	–	1.5	–
COc1ccc(/C=c2/c(=O)n(CC3CC3)/c(=C\c3ccccc3)c(=O)n2C)cc1 [Compound 1833]	9	–	12	20	–	–	1	–
CCCCCOc1n/c(=C\c2ccccc2)c(=O)n(C)/c1=C\c1ccccc1 [Compound 1855]	6	–	10	–	–	–	0.8	–
COc1ccc(CCN(C)CCCC(C#N)(c2ccc(OC)c(OC)c2)C(C)C)cc1OC (stereo not drawn) [Verapamil]	–	–	–	–	–	–	–	sensitise MDR cells to Vinca alkaloids in vitro and in vivo
